Experimental findings from ChEMBL document CHEMBL5335775, “Bioisosteric replacement of 1H-1,2,3-triazole with 1H-tetrazole ring enhances anti-leukemic activity of (5-benzylthiazol-2-yl)benzamides” (Eur J Med Chem, 2023) are described below.

In series [1] the test system is K562. Kind of series: Antiproliferative activity against human K562 cells assessed as inhibition of cell proliferation measured after 72 hrs by MTT assay. It counts as functional, cell-based. Particulars: K562, 72 h.
The nature of series [2]: Antiproliferative activity against human HaCaT cells assessed as inhibition of cell proliferation measured after 72 hrs by MTT assay. Type of series: toxicity, cell-based.
Series [3] in a line: Antiproliferative activity against NIH3T3 cells assessed as inhibition of cell proliferation measured after 72 hrs by MTT assay. Type of series: toxicity, cell-based. Particulars: mouse.
The nature of series [4]: Antiproliferative activity against J774.2 cells assessed as inhibition of cell proliferation measured after 72 hrs by MTT assay. It counts as toxicity, cell-based. Particulars: mouse.
Series [5] in a line: Selectivity index, ratio of IC50 for human HaCaT cells to IC50 for human K562 cells. Type of series: toxicity. Particulars: HaCaT cells and K562 cells, read-out: Ratio IC50.
For series [6], the system named is K562. Kind of series: Induction of DNA damage in human K562 cells assessed as tail DNA level at 70 nM incubated for 24 hrs by comet assay (reference value: 0.5 to 0.6 %). Type of series: functional.
In series [7] the test system is K562. Kind of series: Induction of DNA damage in human K562 cells assessed as tail DNA level at 700 nM incubated for 24 hrs by comet assay (reference value: 0.5 to 0.6 %). It counts as functional.
The subject of series [8] is K562. Kind of series: Induction of DNA damage in human K562 cells assessed as olive tail moment level at 70 nM incubated for 24 hrs by comet assay (reference value: 0.2). It counts as functional.
Series [9] deals with K562. Kind of series: Induction of DNA damage in human K562 cells assessed as olive tail moment level at 700 nM incubated for 24 hrs by comet assay (reference value: 0.2). Type of series: functional.
The test system of series [10] is K562. Kind of series: Induction of pro-apoptotic morphological changes in human K562 cells at 70 to 700 nM incubated for 24 hrs by Hoescht-33342 staining based analysis. Type of series: functional, cell-based. Particulars: dose 70-700 nM.
The target in series [11] is NAD-dependent protein deacetylase sirtuin-2 (Homo sapiens, UniProt Q8IXJ6). Kind of series: Inhibition of N-terminal His6-tagged human Sirt2 (25 to 389 residues) using ZMAL as substrate incubated for 4 hrs by fluorescence based assay.
NAD-dependent protein deacetylase sirtuin-2, sequence (Q8IXJ6 whole entry, the tested form may be a part): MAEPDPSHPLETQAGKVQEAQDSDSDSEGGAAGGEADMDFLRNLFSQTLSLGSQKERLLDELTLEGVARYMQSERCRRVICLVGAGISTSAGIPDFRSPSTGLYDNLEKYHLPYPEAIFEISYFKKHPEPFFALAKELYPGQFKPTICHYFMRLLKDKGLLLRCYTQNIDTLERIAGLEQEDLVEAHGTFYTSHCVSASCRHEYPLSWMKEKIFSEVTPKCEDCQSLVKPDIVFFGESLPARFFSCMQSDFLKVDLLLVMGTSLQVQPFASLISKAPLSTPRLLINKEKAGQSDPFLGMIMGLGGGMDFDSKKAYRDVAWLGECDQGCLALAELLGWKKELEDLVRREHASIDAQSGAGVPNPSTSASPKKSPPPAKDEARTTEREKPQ
In series [12] the test system is K562. Kind of series: Anticancer activity against human K562 cells assessed as cell growth at 10^-5 M incubated for 48 hrs by SRB assay relative to control. It counts as functional. Particulars: K562, 48 h, dose 1 10^-5M, read-out: Activity.
A further series deals with LOX IMVI. Kind of series: Anticancer activity against human LOX IMVI cells assessed as cell growth at 10^-5 M incubated for 48 hrs by SRB assay relative to control. Conditions: dose 1 10^-5M, read-out: Activity. It counts as functional.
The next series deals with UACC-62. Kind of series: Anticancer activity against human UACC-62 cells assessed as cell growth at 10^-5 M incubated for 48 hrs by SRB assay relative to control. It counts as functional. Conditions: UACC-62, 48 h, dose 1 10^-5M, read-out: Activity.
The test system of the next series is ACHN. Kind of series: Anticancer activity against human ACHN cells assessed as cell growth at 10^-5 M incubated for 48 hrs by SRB assay relative to control. Type of series: functional. Conditions: dose 1 10^-5M, read-out: Activity.
The test system of another series is CAKI-1. Kind of series: Anticancer activity against human CAKI-1 cells assessed as cell growth at 10^-5 M incubated for 48 hrs by SRB assay relative to control. It counts as functional. Particulars: CAKI-1, 48 h, dose 1 10^-5M, read-out: Activity.
The next series concerns NCI-H460. Kind of series: Anticancer activity against human NCI-H460 cells assessed as cell growth at 10^-5 M incubated for 48 hrs by SRB assay relative to control. Type of series: functional. Particulars: NCI-H460, 48 h, dose 1 10^-5M, read-out: Activity.
The subject of the next series is HCT-15. Kind of series: Anticancer activity against human HCT-15 cells assessed as cell growth at 10^-5 M incubated for 48 hrs by SRB assay relative to control. It counts as functional. Conditions: HCT-15, 48 h, dose 1 10^-5M, read-out: Activity.
A further series deals with KM12. Kind of series: Anticancer activity against human KM12 cells assessed as cell growth at 10^-5 M incubated for 48 hrs by SRB assay relative to control. It counts as functional. Conditions: KM12, 48 h, dose 1 10^-5M, read-out: Activity.
For a further series, the system named is MDA-MB-435. Kind of series: Anticancer activity against human MDA-MB-435 cells assessed as cell growth at 10^-5 M incubated for 48 hrs by SRB assay relative to control. Type of series: functional. Particulars: MDA-MB-435, 48 h, dose 1 10^-5M, read-out: Activity.
The next series concerns MCF7. Kind of series: Anticancer activity against human MCF7 cells assessed as cell growth at 10^-5 M incubated for 48 hrs by SRB assay relative to control. Type of series: functional. Conditions: MCF7, 48 h, dose 1 10^-5M, read-out: Activity.
The test system of another series is MDA-MB-468. Kind of series: Anticancer activity against human MDA-MB-468 cells assessed as cell growth at 10^-5 M incubated for 48 hrs by SRB assay relative to control. It counts as functional. Particulars: MDA-MB-468, 48 h, dose 1 10^-5M, read-out: Activity.
For the next series, the system named is SF-295. Kind of series: Anticancer activity against human SF-295 cells assessed as cell growth at 10^-5 M incubated for 48 hrs by SRB assay relative to control. Type of series: functional. Particulars: SF-295, 48 h, dose 1 10^-5M, read-out: Activity.
In another series the test system is SK-MEL-5. Kind of series: Anticancer activity against human SK-MEL-5 cells assessed as cell growth at 10^-5 M incubated for 48 hrs by SRB assay relative to control. Type of series: functional. Particulars: SK-MEL-5, 48 h, dose 1 10^-5M, read-out: Activity.
The subject of another series is MOLT-4. Kind of series: Anticancer activity against human MOLT-4 cells assessed as cell growth at 10^-5 M incubated for 48 hrs by SRB assay relative to control. Conditions: MOLT-4, 48 h, dose 1 10^-5M, read-out: Activity. It counts as functional.
The test system of a further series is A549. Kind of series: Anticancer activity against human A549 cells assessed as cell growth at 10^-5 M incubated for 48 hrs by SRB assay relative to control. It counts as functional. Particulars: A549, 48 h, dose 1 10^-5M, read-out: Activity.
The subject of a further series is OVCAR-4. Kind of series: Anticancer activity against human OVCAR-4 cells assessed as cell growth at 10^-5 M incubated for 48 hrs by SRB assay relative to control. Particulars: OVCAR-4, 48 h, dose 1 10^-5M, read-out: Activity. Type of series: functional.
Another series relates to NCI/ADR-RES. Kind of series: Anticancer activity against human NCI/ADR-RES cells assessed as cell growth at 10^-5 M incubated for 48 hrs by SRB assay relative to control. Type of series: functional. Particulars: dose 1 10^-5M, read-out: Activity.
Series [13] is described as follows: Selectivity index, ratio of IC50 for […] to IC50 for human K562 cells. Type of series: functional.

Calls of active or inactive are those of the source. No cut-off for these calls is given here.

For the compound `O=C(Nc1ncc(Cc2ccccc2)s1)c1ccc(-n2cnnn2)cc1`, in the series on K562 [1], the IC50 is 8.3 µM. In addition, the 50% inhibitory concentration (IC50) at 72 h in [2] is 33 µM; in series [3], > 100 µM; in [4], 48.1 µM. For the same compound, the selectivity ratio in series [5] came out at 4.
In the case of `Cc1nnnn1-c1ccc(C(=O)Nc2ncc(Cc3ccccc3)s2)cc1`, the concentration for half-maximal inhibition (IC50) with K562 [1] is > 100 µM. In addition, the IC50 at 72 h in [2] was 6 µM; in series [3], > 100 µM; in series [4], 3.61 µM.
On to `CC(C)c1nnnn1-c1ccc(C(=O)Nc2ncc(Cc3ccccc3)s2)cc1`, for which the IC50 in the series with K562 [1] is > 100 µM. Moreover, the results for the IC50 at 72 h in series [2], in series [3] and in series [4] were 5.59 µM, > 100 µM and 8.94 µM, respectively.
With `Cc1cccc(Cc2cnc(NC(=O)c3cccc(-n4cnnn4)c3)s2)c1`, the concentration for half-maximal inhibition (IC50) in the series on K562 [1] was > 100 µM. Further, the half-inhibitory concentration (IC50) at 72 h in [2] is > 100 µM; in series [3] it was > 100 µM; in series [4], 52.8 µM.
As to `COc1cccc2c1C(=O)c1c(O)c3c(c(O)c1C2=O)C[C@@](O)(C(=O)CO)C[C@@H]3O[C@H]1C[C@H](N)[C@H](O)[C@H](C)O1` [DOXORUBICIN], the half-inhibitory concentration (IC50) at 72 h in [2] turned out to be 0.86 µM; in series [3], 0.79 µM; in [4], 0.64 µM. In addition, the Activity turned out to be 0.7% with K562 [6], 3.5% with K562 [7], 0.4 in the series on K562 [8] and 1 with K562 [9]. The result in the series on K562 [10] was inactive.
Consider `COCCn1cc(COc2cccc(Cc3cnc(NC(=O)CSc4nc(C)cc(C)n4)s3)c2)nn1`, for which the IC50 in [11] came out at 0.118 µM.
Regarding `Cc1ccc(Cc2cnc(NC(=O)c3ccc(-n4cnnn4)cc3)s2)cc1`, the growth at 10 µM with K562 [12] was found to be 22.9%; in the series on LOX IMVI, 39.4%; with UACC-62, 20.3%; in the series with ACHN, 39.5%; in the series with CAKI-1 it was 39.1%. In the series with K562 [1], the IC50 came to 8 µM. For the same compound, the values for the concentration for half-maximal inhibition (IC50) at 72 h in [2], in series [3] and in series [4] were 52.6 µM, > 100 µM and 59.8 µM, respectively. The selectivity ratio in [5] was 6.6.
`O=C(Nc1ncc(Cc2cccc(C(F)(F)F)c2)s1)c1ccc(-n2cnnn2)cc1`: the growth at 10 µM is 21% in the series with K562 [12]; 30.5% in the series on NCI-H460; 38.7% in the series with HCT-15; 28.8% with KM12; 24% in the series with MDA-MB-435; 19.8% in the series with UACC-62. In addition, the growth at 10 µM was determined as 32% in the series on ACHN; 30.1% in the series on CAKI-1; 28.7% in the series on MCF7; 16.7% in the series on MDA-MB-468; 32.2% in the series with SF-295; 37.8% with SK-MEL-5. In addition, the growth at 10 µM amounted to 39.4% in the series on MOLT-4, 34.4% in the series on A549, 33.6% with OVCAR-4 and 35.9% in the series with NCI/ADR-RES. In addition, in the series with K562 [1], the IC50 turned out to be 23.7 µM. The results for the IC50 at 72 h in series [2], in series [3] and in series [4] were > 100 µM, > 100 µM and 43.2 µM, respectively. In series [13], the “Ratio IC50” value was found to be 1.8.
